Where two headings read alike, the source gives them in different places. Non-standard residues stand in square brackets, D forms with d. Residues, ends and D or L forms follow the SMILES beside them.

Consider 32 molecules from patent US20040253665A1, “Novel peptide-producing enzyme, microbe producing the enzyme and method for dipeptide synthesis using them” (AJINOMOTO CO., INC., priority 2002, published 2004).

For assay [1], the system named is peptide-producing enzyme (Mono S fraction) from Empedobacter brevis strain FERM BP-8113. As to the kind of experiment: Enzyme substrate specificity (1)-(10), (13), (14). The following applies: pH 9.0, 25° C., 3 hours. The class given is biochemical. The source says: Ester specificity was examined in the case of using L-amino acid ester for the carboxy component. […] The amounts of L-Ala-L-Gln produced in this reaction are shown in Table 4 (HCl represents hydrochloride in Table 4). Peptide production was examined in the case of using L-alanine methyl ester for the carboxy component and using various L-amino acids for the amine component. […] (The “+” mark indicates those peptides for which production was confirmed but which were unable to be quantified due to the absence of a standard, while “tr” indicates a trace amount.) Peptide production was examined in the case of using various types of L-amino acid methyl esters for the carboxy component and using L-glutamine for the amine component. […] Peptide production was examined in the case of using various L-amino acid methyl esters for the carboxy component and various L-amino acids for the amine component. […] (The “tr” indicates a trace amount.) Furthermore, Tween-80 was added to the reaction system to a final concentration of 0.1% in the case of using L-Trp-OMe. (The “+” mark indicates those peptides for which production was confirmed but which were unable to be quantified due to the absence of a standard.) […] (The “tr” indicates a trace amount.) Peptide production was examined using various L-amino acid amides for the carboxy component, and various L-amino acids for the amine component. […] Peptide production was examined in the case of using various L-alanine methyl esters for the carboxy component and C-protected L-amino acids for the amine component. […] Peptide production was examined in the case of using various amino acid methyl esters for the carboxy component and methylamine for the amine component. […] Peptide production was examined in the case of using β-amino acid ester for the carboxy component or β-amino acid for the amine component. […] (The “tr” indicates a trace amount.) Oligopeptide production was examined in the case of using L-amino acid ester for the carboxy component and peptide for the amine component. […] Substrate specificity was additionally assessed using the same enzyme fraction as that used in Example 5. […] (A “+” mark indicates those for which production was confirmed but which were unable to be quantified due to the absence of a standard, while “tr” indicates a trace amount). Substrate specificity with respect to oligopeptide production was assessed using the same enzyme fraction as Example 26. […] (A “+” mark indicates those for which production was confirmed but which were unable to be quantified due to the absence of a standard, while “tr” indicates a trace amount). It should be noted that hydrochlorides were used for all of the carboxy components.

In assay [2] the test system is enzyme (SP-Sepharose HP fraction) derived from Sphingobacterium sp. strain FERM BP-8124. The class given is biochemical. Details: key to Produced peptide (mM): +: those peptides for which production was confirmed but which were unable to be quantified due to the absence of a standard; a trace amount. The following applies: 0.33 units enzyme, pH 9.0, 25° C., 1.5 hours. The method, then: Substrate specificity was examined for enzyme derived from Sphingobacterium sp. strain FERM BP-8124 (Depositary institution: National Institute for Advanced Industrial Science and Technology, International Patent Organism Depositary, Address of depositary institution: Central. 6, 1-1-1 Higashi, Tsukuba City, Ibaraki Prefecture, Japan, International deposit date: Jul. 22, 2002). 100 μl of 100 mM borate buffer (pH 9.0) containing the various carboxy components at a final concentration of 100 mM and the various amine components at a final concentration of 150 mM shown in Tables 15-1 to 15-4, the SP-Sepharose HP fraction enzyme purified in Example 22 (addition of 0.33 units in the reaction liquid) and 10 mM EDTA were allowed to react at 25° C. for 1.5 hours. […] In addition, hydrochlorides were used for all carboxy components.
Substrate specificity with respect to oligopeptide production was examined for enzyme derived from Sphingobacterium sp. strain FERM BP-8124 (Depositary institution: National Institute for Advanced Industrial Science and Technology,.International Patent Organism Depositary, Address of depositary institution: Chuo Dai-6, 1-1 Higashi 1-Chome, Tsukuba-shi, Ibaraki-ken, Japan, International deposit date: Jul. 22, 2002). A 100 μl aliquot of 100 mM borate buffer (pH 9.0) containing the various carboxy components at a final concentration of 100 mM and the various amine components at a final concentration of 150 mM shown in Table 16, the SP-Sepharose HP fraction enzyme purified in Example 22 (addition of 0.33 units in the reaction liquid) and 10 mM EDTA were allowed to react for 1.5 hours at 25° C. Furthermore, hydrochloride salts were used for all carboxy components.

[3] abbreviates: L-amino acid methyl ester hydrochloride 100 mM, 150 mM L-glutamine.
The mark [4] stands for this setting: Table 15-2, carboxy component 100 mM, L-Gln 150 mM.
[5] abbreviates: 100 mM L-alanine methyl ester hydrochloride, L-amino acid 150 mM.
Setting [6] is: Table 15-1, carboxy component 100 mM, amine component 150 mM.
[7] abbreviates: L-amino acid methyl ester hydrochloride 100 mM, L-amino acid 150 mM.
[8] abbreviates: Table 15-3, carboxy component 100 mM, amine component 150 mM.
Where [9] appears, read: L-Ala-OMe 100 mM, L-amino acid amide 150 mM as amine component.
Where [10] appears, read: Table 15-4, amides or methylamine as components, 100 mM / 150 mM.
The mark [11] stands for this setting: L or D amino acid methyl ester hydrochloride 100 mM, L or D amino acid 150 mM.
Where [12] appears, read: L-amino acid ester 100 mM, amino acid or peptide amine component 150 mM.
Setting [13] is: Table 16, oligopeptide production, carboxy component 100 mM, amine component 150 mM.

Consider `CSCC[C@H](N)C(=O)N[C@@H](CCC(N)=O)C(=O)O` [L-Met-L-Gln] (H-Met-Gln-OH), for which the “Produced peptide” value in assay [1] (setting [3]) is recorded as 12.0 mM; in assay [2] (setting [4]), 32.6 mM.
As for `C[C@H](N)C(=O)N[C@@H](CCC(=O)O)C(=O)O` [L-Ala-L-Glu] (H-Ala-Glu-OH), the entries for the “Produced peptide” value in assay [1] (setting [5]) and in assay [2] (setting [6]) were 42.9 mM and 39.1 mM, respectively.
On to `NCC(=O)N[C@@H](Cc1ccccc1)C(=O)O` [Gly-L-Phe] (H-Gly-Phe-OH), for which the “Produced peptide” value in assay [1] (setting [7]) is 44.0 mM; in assay [1] (oligopeptide production, amount of enzyme 0.1 units), 17.3 mM; in assay [2] (setting [8]), 20.0 mM.
In the case of `NCC(=O)N[C@@H](CCC(N)=O)C(=O)O` [Gly-L-Gln] (H-Gly-Gln-OH), the figures for the “Produced peptide” value in assay [1] (setting [3]) and in assay [2] (setting [4]) were 54.7 mM and 61.1 mM, respectively.
For `CC[C@H](C)[C@H](N)C(=O)N[C@@H](CO)C(=O)O` [L-Ile-L-Ser] (H-Ile-Ser-OH), the “Produced peptide” value was 17.2 mM in assay [1] (setting [7]) and 17.3 mM in assay [2] (setting [8]).
In the case of `CC[C@H](C)[C@H](N)C(=O)N[C@@H](CCC(N)=O)C(=O)O` [L-Ile-L-Gln] (H-Ile-Gln-OH), the “Produced peptide” value in assay [1] (setting [3]) came to 8.4 mM; in assay [2] (setting [4]) it was 6.4 mM.
As for `C[C@H](N)C(=O)NCC(N)=O` [L-Ala-Gly-NH2] (H-Ala-Gly-NH2), the “Produced peptide” value in assay [1] (setting [9]) was 7.4 mM; in assay [2] (setting [10]) it was 15.1 mM.
Consider `CSCC[C@H](NC(=O)[C@@H](N)CCCN=C(N)N)C(=O)O` [L-Arg-L-Met] (H-Arg-Met-OH), for which, in assay [1] (setting [7]), the “Produced peptide” value was found to be 0.7 mM. Further, in assay [2] (setting [8]), the “Produced peptide (mM)” value is “tr”.
Consider `NC(=O)CC[C@H](NC(=O)[C@@H](N)CO)C(=O)O` [L-Ser-L-Gln] (H-Ser-Gln-OH), for which the “Produced peptide” value was 24.0 mM in assay [1] (setting [3]) and 12.9 mM in assay [2] (setting [4]).
For `NCC(=O)N[C@@H](CO)C(=O)O` [Gly-L-Ser] (H-Gly-Ser-OH), the results for the “Produced peptide” value in assay [1] (setting [7]) and in assay [2] (setting [8]) were 44.2 mM and 53.8 mM, respectively.
For the molecule `N[C@@H](CO)C(=O)N[C@@H](Cc1ccccc1)C(=O)O` [L-Ser-L-Phe], the “Produced peptide” value turned out to be 20.3 mM in assay [1] (setting [7]) and 4.3 mM in assay [2] (setting [8]).
As to `C[C@@H](N)C(=O)N[C@@H](CO)C(=O)O` [D-Ala-L-Ser] (H-[dA]-Ser-OH), the “Produced peptide” value amounted to 20.3 mM in assay [1] (setting [11]) and 24.1 mM in assay [2] (setting [6]).
With `CC(C)[C@H](N)C(=O)N[C@@H](Cc1ccccc1)C(=O)O` [L-Val-L-Phe] (H-Val-Phe-OH), the entries for the “Produced peptide” value in assay [1] (setting [7]) and in assay [2] (setting [8]) were 6.1 mM and 1.0 mM, respectively.
For `C[C@@H](O)[C@H](N)C(=O)NCC(=O)O` [L-Thr-Gly] (H-Thr-Gly-OH), the “Produced peptide” value is reported as 9.4 mM in assay [1] (setting [7]) and 0.4 mM in assay [2] (setting [8]).
For the molecule `C[C@H](N)C(=O)N[C@@H](Cc1ccccc1)C(N)=O` [L-Ala-L-Phe-NH2], the figures for the “Produced peptide” value in assay [1] (setting [9]) and in assay [2] (setting [10]) were 12.2 mM and 27.1 mM, respectively.
As to `NC(=O)CC[C@H](NC(=O)[C@@H](N)CCCN=C(N)N)C(=O)O` [L-Arg-L-Gln] (H-Arg-Gln-OH), the results for the “Produced peptide” value in assay [1] (setting [3]) and in assay [2] (setting [4]) were 7.1 mM and 17.2 mM, respectively.
Regarding `CSCC[C@H](NC(=O)[C@@H](N)CO)C(=O)O` [L-Ser-L-Met] (H-Ser-Met-OH), the “Produced peptide” value came to 12.5 mM in assay [1] (setting [7]) and 7.6 mM in assay [2] (setting [8]).
On the same counts, the results for `CSCC[C@H](NC(=O)[C@@H](N)CCSC)C(=O)O` [L-Met-L-Met] (H-Met-Met-OH) are 25.0 mM and 28.4 mM.
`NC(=O)CC[C@H](NC(=O)[C@@H](N)Cc1ccccc1)C(=O)O` [L-Phe-L-Gln]: the “Produced peptide” value in assay [1] (L-amino acid amide hydrochloride 100 mM as carboxy component, L-amino acid 150 mM) stood at 0.2 mM; in assay [1] (setting [3]), 0.9 mM; in assay [2] (setting [4]), 0.8 mM.
On to `NCCCC[C@H](NC(=O)CN)C(=O)O` [Gly-L-Lys] (H-Gly-Lys-OH), for which the “Produced peptide” value in assay [1] (setting [7]) worked out at 9.8 mM; in assay [2] (setting [8]) it was 48.2 mM.
For the molecule `C[C@H](N)C(=O)N[C@H](C(=O)O)[C@@H](C)O` [L-Ala-L-Thr] (H-Ala-Thr-OH), the entries for the “Produced peptide” value in assay [1] (setting [5]) and in assay [2] (setting [6]) were 53.9 mM and 47.3 mM, respectively.
Turning to `NC(N)=NCCC[C@H](N)C(=O)N[C@@H](CO)C(=O)O` [L-Arg-L-Ser] (H-Arg-Ser-OH), the “Produced peptide” value in assay [1] (setting [7]) is given as 3.6 mM; in assay [2] (setting [8]), 2.2 mM.
With `C[C@H](N)C(=O)N[C@H](CO)C(=O)O` [L-Ala-D-Ser] (H-Ala-[dS]-OH), the “Produced peptide” value in assay [1] (setting [11]) is 5.4 mM; in assay [2] (setting [6]), 3.3 mM.
In the case of L-Ala-Gly-Gly, the “Produced peptide” value in assay [1] (setting [12]) is on record as 41.7 mM; in assay [2] (setting [13]), 33.7 mM.
On to `C[C@H](N)C(=O)NCC(=O)O` [L-Ala-Gly] (H-Ala-Gly-OH), for which the entries for the “Produced peptide” value in assay [1] (setting [5]) and in assay [2] (setting [6]) were 13.7 mM and 11.1 mM, respectively.
Consider L-Ala-L-Phe-L-Ala, for which the figures for the “Produced peptide” value in assay [1] (setting [12]) and in assay [2] (setting [13]) were 49.7 mM and 24.8 mM, respectively.
With `CSCC[C@H](NC(=O)[C@@H](N)[C@@H](C)O)C(=O)O` [L-Thr-L-Met] (H-Thr-Met-OH), the “Produced peptide” value stood at 38.6 mM in assay [1] (setting [7]) and 28.9 mM in assay [2] (setting [8]).
On the same counts, the results for `CC[C@H](C)[C@H](N)C(=O)N[C@@H](Cc1ccccc1)C(=O)O` [L-Ile-L-Phe] (H-Ile-Phe-OH) are 5.2 mM and 1.5 mM.
For the molecule `CC(C)[C@H](NC(=O)[C@H](C)N)C(=O)O` [L-Ala-L-Val] (H-Ala-Val-OH), the “Produced peptide” value in assay [1] (setting [5]) was 20.8 mM; in assay [2] (setting [6]), 10.9 mM.
As to `NC(=O)CC[C@H](NC(=O)[C@@H](N)Cc1ccc(O)cc1)C(=O)O` [L-Tyr-L-Gln] (H-Tyr-Gln-OH), the “Produced peptide” value in assay [1] (setting [3]) turned out to be 3.4 mM; in assay [2] (setting [4]) it was 0.6 mM.
`C[C@H](N)C(=O)N[C@@H](Cc1ccc(O)cc1)C(=O)O` [L-Ala-L-Tyr] (H-Ala-Tyr-OH): the “Produced peptide” value in assay [1] (setting [5]) is listed as 17.6 mM; in assay [2] (setting [6]) it was 11.1 mM.
With `C[C@H](N)C(=O)N[C@@H](C)C(=O)O` [L-Ala-L-Ala] (H-Ala-Ala-OH), the “Produced peptide” value was 25.4 mM in assay [1] (setting [5]), 28.7 mM in assay [1] (setting [12]), 13.1 mM in assay [2] (setting [6]) and 25.6 mM in assay [2] (setting [13]).
